From patent US9816074B2, “Methods and compositions for modulating nuclease-mediated genome engineering in hematopoietic stem cells” (Sangamo BioSciences, Inc., priority 2014, dated 2017)
Read-outs that look alike come from different tables or passages of the source.

Assays:
Type in all cases: cell-based
Human mPB CD34+ cells [1] = experiment: Cell viability by flow cytometry in the presence of propidium iodide
Description: (§1) No change in culture cell density was seen after VPA addition compared to controls in genome modified mPB HSPCs (FIG. 6F).
(§2) Human mPB CD34+ cells were cultured ex vivo in CC110 media with or without 100 ng/mL IL-6 in the presence of VPA (1.25 mM or 2.5 mM) and 5 mM lithium chloride (Li) for 4 (blue lines—added at 4 days post thawing of the cells) or 7 days (red line—added at 1 day post thawing).

Human mPB CD34+ cells [2] = experiment: Flow cytometry of HSPC multipotency markers (CD34, CD133, CD90, CD49f, CD166, CD38, CD45RA); conditions: for CD90 expression (FIG. 3A): dmPGE2 10 μM, SR1 1 μM, 17 days, addition 1 day post thawing; for CD49f expression (FIG. 3C) / CD133 expression (FIG. 3B): compared to controls, 17 day culture; for CD34 expression compared to controls (FIG. 3D): for the duration of the experiment (17 days); for CD90 expression (percent of CD90+ cells, FIG. 2A): nicotinamide 2.5 mM, TEPA 5 μM, addition at 1 day post thawing, vs control
Description: Human mPB CD34+ cells were cultured ex vivo in CC110 media for 3 days with or without VPA, nicotinamide or TEPA. Various cell surface markers are enriched on CD34+ subpopulations that contain true LT-HSCs. Measurement of such cell surface markers can therefore be used as a proxy for the number of LT-HSCs in the culture. In particular, CD90, CD133, CD49f, CD38, and CD166 can be used to assay LT-HSC number (Notta et al. (2011) Science 333(6039):218-21; Chitteti et al. (2014) Blood 124(4):519-29), with the LT-HSCs generally residing in the CD90+CD133+CD49f+CD38-low CD166+ pool. Accordingly, cells were stained using fluorescently-tagged antibodies against the HSPC multipotency markers CD34 (PE-Cy7), CD133 (PE), CD90 (APC), and CD49f (PerCP) and analyzed by flow cytometry.
Human mPB CD34+ cells were cultured ex vivo in CC110 media for 17 days. Cells were then stained using fluorescently-tagged antibodies against the HSPC multipotency markers CD34 (PE-Cy7), CD133 (PE), CD90 (APC), and CD49f (PerCP) and analyzed by flow cytometry as described above.
Human mPB-derived cells were cultured as described above in the presence or absence of VPA (1.25 mM) and 5 mM lithium chloride (Li) and cells assayed for primitive cell surface markers as described above.
CD34+ cells were cultured ex vivo in CC110 media with 100 ng/mL IL-6 for 8 days in the presence or absence of VPA, lithium, nucleases and donors. VPA and Li were added prior to nucleases and/or donors (which can be added in any order). Briefly, CD34+ cells were thawed and cultured for approximately […] before addition of VPA and Li and cultured again (e.g., 1-2 days) before addition of a donor. Nucleases (e.g., ZFN mRNA) were added 0.5 to 1 day later and VPA/Li washed out at the same time. After at least a day, cells were then stained using fluorescently-tagged antibodies against the HSPC multipotency markers CD34 (PE-Cy7), CD133 (PE), CD90 (APC), and CD49f (PerCP) and analyzed by flow cytometry.
CD34+ cells were cultured ex vivo in CC110 media as described above for approximately 6 days in the presence or absence of VPA, lithium, nucleases and donors. VPA and Li were added after to nucleases and/or donors (which can be added in any order). Briefly, CD34+ cells were thawed and cultured for approximately 2-3 days before addition of a donor. Nucleases (e.g., ZFN mRNA) were added 0.5 to 1 day after transfection with the donor. The donor was a SA-IL2RG partial corrective cDNA transgene at IL2RG intron 1 and the zinc-finger nucleases (ZFN) were SBS #s 44271/44298 delivered by BTX electroporation. VPA/Li was added 1 day after addition of the ZFN mRNA. After approximately 3 days, cells were then stained using fluorescently-tagged antibodies against the HSPC multipotency markers CD34 (PE-Cy7), CD133 (PE), CD90 (APC), and CD49f (PerCP) and analyzed by flow cytometry.
as §2
The presence of IL-6 was capable of enhancing the expression of CD49f with extended culture. […] In a further experiment, human mPB CD34+ cells were cultured ex vivo in CC110 media in the presence of VPA (1.25 mM) plus LiCl (5 mM) with or without 100 ng/mL IL-6 for 7 days.
After 7 days in culture cells were stained using fluorescently-tagged antibodies against the HSPC multipotency marker CD166 (PE) and analyzed by flow cytometry. VPA+Li increased the overall fraction of CD166+ cells.
Human mPB CD34+ cells were cultured ex vivo in CC110 media with 100 ng/mL IL-6 in the presence or absence of VPA (1.25 mM) plus LiCl (5 mM) for 6 days.

Human mPB CD34+ cells [3] = experiment: Cell density / proliferative capacity in culture; conditions: for cell density / growth (FIG. 3F): extended culture, 17 days
From the text: as §1
The presence of IL-6 was capable of enhancing the expression of CD49f with extended culture. […]

Human mPB CD34+ cells [4] = experiment: Methylcellulose assays (colony forming units) on CD34+ cell cultures
CD34+ cells = experiment: CRISPR/Cas nuclease modification with VPA (as Example 3, CRISPR/Cas in place of ZFNs); conditions: introduced before, concurrently and/or after the CRISPR/Cas nuclease systems
Description: Experiments are conducted as described in Example 3 using CRISPR/Cas nucleases in place of ZFNs (e.g., specific for any gene such as IL2, HPRT, etc.), with and without donors.

[5] = 14 days of in vitro differentiation
[6] = VPA 1.25 mM added 1 day post thawing
[7] = compared to controls after 14 days of in vitro differentiation

Q: How did the “cell viability (FIG. 3E)” value (Human mPB CD34+ cells [1]) turn out when CC(C)n1cnc2c(NCCc3ccc(O)cc3)nc(-c3csc4ccccc34)nc21 [SR1, StemRegenin 1] was run?
A: no effect on cell viability

Q: And the “CD90 expression (FIG. 3A)” value (Human mPB CD34+ cells [2]; VPA 1.25 mM, CC110 media)?
A: No effect

Q: What about the “CD49f expression (FIG. 3C)” value (Human mPB CD34+ cells [2]) of the same compound?
A: increased expression compared to both controls and VPA after 17 days in culture

Q: And the “CD133 expression (FIG. 3B)” value (Human mPB CD34+ cells [2])?
A: decreased expression

Q: What about the “CD34 expression compared to VPA (FIG. 3D)” value (Human mPB CD34+ cells [2]; extended culture) of the same compound?
A: higher expression

Q: And the “CD34 expression compared to controls (FIG. 3D)” value (Human mPB CD34+ cells [2])?
A: retained elevated CD34 expression

Q: And the “cell density / growth (FIG. 3F)” value (Human mPB CD34+ cells [3])?
A: slight growth advantage

Q: What about the “erythroid burst-forming units (BFU-E)” value (Human mPB CD34+ cells [4]; [5]) of the same compound?
A: increased

Q: And the “granulocyte and megakaryocyte colony-forming units (CFU-GM)” value (Human mPB CD34+ cells [4]; [5])?
A: increased

Q: Which “CD90 expression (percent of CD90+ cells, FIG. 2A)” value (Human mPB CD34+ cells [2]; VPA 1.25 mM) does the source give for NCCNCCNCCNCCN [TEPA, tetraethylenepentamine] here?
A: No effect

Q: Which results are given for CCCC(CCC)C(=O)O [VPA, valproic acid]?
A: cell viability (FIG. 3E) (Human mPB CD34+ cells [1]): no loss of cell viability; cell viability after VPA addition compared to controls (FIG. 6E) (Human mPB CD34+ cells [1]): no increased loss of cell viability; overall cell viability with VPA (Human mPB CD34+ cells [1]): slightly lower viability; recovery of cell viability following VPA administration (Human mPB CD34+ cells [1]): initial delay in recovery; viability after VPA addition, before genome modification (FIG. 5E) (Human mPB CD34+ cells [1]): no decrease in viability; viability after genome modification (FIG. 5E) (Human mPB CD34+ cells [1]): significant viability loss; viability after genome modification (FIG. 6E) (Human mPB CD34+ cells [1]): significant loss of viability; level of CD90 expression, VPA added at day 1 vs day 4 (Human mPB CD34+ cells [2]): higher level; marker expression after VPA washout and genome modification (Human mPB CD34+ cells [2]; Example 3C): retained high CD90, CD34, CD133 and CD49f expression; CD49f expression compared to controls (Human mPB CD34+ cells [2]; VPA 1.25 mM + LiCl 5 mM, 7 days): increased; time to peak of CD90 expression after addition (FIG. 2A) (Human mPB CD34+ cells [2]; [6]): ≤ 2 days; time to peak of CD90 expression after addition (FIG. 3A) (Human mPB CD34+ cells [2]; [6]): ≤ 2 days; CD90 expression (FIG. 3A) (Human mPB CD34+ cells [2]; VPA 1.25 mM, CC110 media): dramatically increased; CD90 expression (percent of CD90+ cells, FIG. 2A) (Human mPB CD34+ cells [2]; VPA 1.25 mM): dramatically increased; fraction of CD34+CD133+CD90+CD49f+ cells (Human mPB CD34+ cells [2]; VPA 1.25 mM, CC110 media, 3 days, controls 14.4%): 85.9%; proportion of CD34+CD133+ cells (Human mPB CD34+ cells [2]; VPA 1.25 mM, CC110 media, 3 days, controls 51.7%): 93.1%; level of CD133, CD90 and CD49f expression, VPA added at day 1 vs day 4 (Human mPB CD34+ cells [2]; VPA + 5 mM Li): higher level; marker expression after VPA washout and genome modification (Human mPB CD34+ cells [2]; addition after extended culture (Example 3B)): retained high CD90, CD34, CD133 and CD49f expression; CD49f expression (FIG. 3C) (Human mPB CD34+ cells [2]): increased CD49f expression for up to 15 days; CD133 expression (FIG. 3B) (Human mPB CD34+ cells [2]): increased; fraction of cells unresponsive to VPA stimulation between days 1 and 4 post thawing (CD133, CD90 and CD49f expression) (Human mPB CD34+ cells [2]; day 1 vs day 4 addition): ~15%; fraction of cells unresponsive to VPA stimulation between days 1 and 4 post thawing, CD49f (Human mPB CD34+ cells [2]; day 1 vs day 4 addition): ~15%; fraction of cells unresponsive to VPA stimulation between days 1 and 4 post thawing, CD90 (Human mPB CD34+ cells [2]; day 1 vs day 4 addition): ~20%; fraction of cells unresponsive to VPA stimulation between days 1 and 4 post thawing, CD133 (Human mPB CD34+ cells [2]; day 1 vs day 4 addition): ~15%; CD34 expression, VPA added at day 1 vs day 4 post-thawing (Human mPB CD34+ cells [2]; extended culture): increased CD34 expression; CD34 expression compared to controls (FIG. 3D) (Human mPB CD34+ cells [2]): retained elevated CD34 expression; dose dependence of CD49f expression (Human mPB CD34+ cells [2]; increasing VPA): No significant dose dependence; dose dependence of CD90 expression (Human mPB CD34+ cells [2]; increasing VPA): dose dependence; dose dependence of CD34 expression (Human mPB CD34+ cells [2]; increasing VPA doses (1.25 mM, 2.5 mM)): slight dose dependence; CRISPR/Cas induced nuclease modification (CD34+ cells): enhances; cell growth, VPA at day 4 compared to day 1 (Human mPB CD34+ cells [3]): cell growth advantage; cell growth potential at 2.5 mM VPA (Human mPB CD34+ cells [3]; 2.5 mM VPA): decreased cell growth potential; initial proliferative capacity (Human mPB CD34+ cells [3]; Example 6, VPA administration): slightly decreased proliferative capacity; proliferative capacity after 7 days in culture (Human mPB CD34+ cells [3]; Example 6, VPA administration): recovered; culture cell density (FIG. 6F) (Human mPB CD34+ cells [3]; after VPA addition compared to controls, genome modified mPB HSPCs): No change; cell density / growth (FIG. 3F) (Human mPB CD34+ cells [3]): slightly decreased proliferative capacity; cell growth at lower doses of VPA (Human mPB CD34+ cells [3]; lower doses than 2.5 mM): did not affect cell growth as substantially; myeloid or erythroid differentiation capacity (FIG. 2C) (Human mPB CD34+ cells [4]; [7]): no significant difference; myeloid or erythroid differentiation capacity (FIGS. 3G and 3H) (Human mPB CD34+ cells [4]; [7]): no significant difference

Q: For CCCCC(C)(C)[C@H](O)/C=C/[C@H]1[C@H](O)CC(=O)[C@@H]1C/C=C\CCCC(=O)O [dmPGE2, 16,16-dimethyl Prostaglandin E2], which “cell viability (FIG. 3E)” value (Human mPB CD34+ cells [1]; extended culture, 17 days) is on record?
A: no effect on cell viability

Q: And the “CD90 expression (FIG. 3A)” value (Human mPB CD34+ cells [2]; VPA 1.25 mM, CC110 media)?
A: No effect

Q: What about the “cell density / growth (FIG. 3F)” value (Human mPB CD34+ cells [3]) of the same compound?
A: slight growth advantage

Q: For NC(=O)c1cccnc1 [nicotinamide], which “CD90 expression (percent of CD90+ cells, FIG. 2A)” value (Human mPB CD34+ cells [2]; VPA 1.25 mM) is on record?
A: No effect

Q: Which results are given for “IL-6: cytokine added to CC110 media at 100 ng/mL”?
A: VPA-increased HSC multipotency marker expression in the presence of IL-6 (Human mPB CD34+ cells [2]; 100 ng/mL IL-6): enhanced; expression of CD49f in the presence of IL-6 (Human mPB CD34+ cells [2]; 100 ng/mL IL-6, extended culture with VPA+Li): enhancing; overall cell density with or without IL-6 (Human mPB CD34+ cells [3]; 100 ng/mL IL-6, VPA+Li cultures): higher overall cell density in the absence of IL-6
